Assays:
[1] = target: T1, Alpha-1D adrenergic receptor (Homo sapiens, UniProt P25100); assay type: cell membranes, HEK293, Membrane; conditions: hek293; also: in other assays of this panel Not Active means under 50% inhibition at 10 µM
T1 sequence (P25100 whole entry): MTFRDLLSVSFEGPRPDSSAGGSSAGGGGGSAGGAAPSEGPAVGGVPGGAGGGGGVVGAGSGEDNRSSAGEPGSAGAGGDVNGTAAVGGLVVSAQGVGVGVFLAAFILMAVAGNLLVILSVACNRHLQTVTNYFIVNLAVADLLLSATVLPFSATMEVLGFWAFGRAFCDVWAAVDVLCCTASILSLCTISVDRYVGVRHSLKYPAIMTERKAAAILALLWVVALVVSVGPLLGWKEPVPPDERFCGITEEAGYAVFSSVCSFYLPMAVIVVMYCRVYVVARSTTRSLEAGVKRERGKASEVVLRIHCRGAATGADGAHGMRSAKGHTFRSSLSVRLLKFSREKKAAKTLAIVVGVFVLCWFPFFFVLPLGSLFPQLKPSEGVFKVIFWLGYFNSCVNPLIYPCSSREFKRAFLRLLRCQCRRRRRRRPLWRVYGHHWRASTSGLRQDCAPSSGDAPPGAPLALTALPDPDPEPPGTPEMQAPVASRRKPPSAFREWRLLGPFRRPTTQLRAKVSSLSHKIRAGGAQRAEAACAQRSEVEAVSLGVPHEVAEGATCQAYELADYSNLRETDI

[2] = target: T2, Alpha-2C adrenergic receptor (Homo sapiens, UniProt P18825); assay: DRUGMATRIX: Adrenergic Alpha-2C radioligand binding (ligand: [3H] MK-912); assay type: cell membranes, Sf9, Membrane; conditions: sf9
T2 sequence (P18825 whole entry): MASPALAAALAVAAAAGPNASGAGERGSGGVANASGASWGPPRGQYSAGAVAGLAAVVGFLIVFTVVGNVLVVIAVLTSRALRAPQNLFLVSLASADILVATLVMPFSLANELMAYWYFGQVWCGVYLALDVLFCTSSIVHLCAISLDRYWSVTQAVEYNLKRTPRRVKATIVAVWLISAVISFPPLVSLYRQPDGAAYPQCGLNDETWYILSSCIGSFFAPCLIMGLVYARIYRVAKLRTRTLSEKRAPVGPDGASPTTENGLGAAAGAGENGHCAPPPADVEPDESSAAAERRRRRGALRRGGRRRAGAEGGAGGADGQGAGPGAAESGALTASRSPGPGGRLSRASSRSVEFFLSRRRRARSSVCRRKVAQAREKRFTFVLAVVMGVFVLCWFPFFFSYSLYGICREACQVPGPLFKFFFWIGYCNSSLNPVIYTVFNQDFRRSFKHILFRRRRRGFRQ

[3] = target: Beta-2 adrenergic receptor (Homo sapiens, UniProt P07550); assay: DRUGMATRIX: Adrenergic beta2 radioligand binding (ligand: [3H] CGP-12177); assay type: cell membranes, Membrane; conditions: cho; Not Active = under 50% inhibition at 10 µM
[4] = target: Aldo-keto reductase family 1 member B1 (Rattus norvegicus, UniProt P07943); assay type: tissue-based, Lens of camera-type eye;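 also: inhibition of aldose reductase enzyme activity, measured with DL-glyceraldehyde as the substrate; in other assays of this panel Not Active means under 50% inhibition at 10 µM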
[5] = DRUGMATRIX: Tumor Necrosis Factor (TNF), Non-Selective radioligand binding (ligand: [125I] TNF-alpha); assay type: cell membranes, Membrane; conditions: u-937; Not Active = under 50% inhibition at 10 µM
[6] = target: T3, Vasoactive intestinal polypeptide receptor 1 (Homo sapiens, UniProt P32241); assay type: cell membranes, Membrane; conditions: ht-29; also: in other assays of this panel Not Active means under 50% inhibition at 10 µM
T3 sequence (P32241 whole entry): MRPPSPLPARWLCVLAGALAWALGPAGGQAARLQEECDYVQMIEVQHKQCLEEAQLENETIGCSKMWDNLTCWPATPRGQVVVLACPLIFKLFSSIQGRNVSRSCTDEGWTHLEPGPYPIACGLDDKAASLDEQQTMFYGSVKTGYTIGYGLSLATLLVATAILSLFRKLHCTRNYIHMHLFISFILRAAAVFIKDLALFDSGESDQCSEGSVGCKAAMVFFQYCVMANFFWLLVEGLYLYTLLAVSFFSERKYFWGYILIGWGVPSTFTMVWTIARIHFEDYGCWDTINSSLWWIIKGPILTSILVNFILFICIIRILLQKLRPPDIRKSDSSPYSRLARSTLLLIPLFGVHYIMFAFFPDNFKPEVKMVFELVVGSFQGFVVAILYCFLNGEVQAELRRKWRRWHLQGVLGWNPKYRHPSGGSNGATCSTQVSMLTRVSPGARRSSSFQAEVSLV

[7] = DRUGMATRIX: Nicotinic Acetylcholine radioligand binding (ligand: [125I] Epibatidine); assay type: cell membranes, Membrane; conditions: imr-32; Not Active = under 50% inhibition at 10 µM
[8] = DRUGMATRIX: Platelet-Derived Growth Factor (PDGF) radioligand binding (ligand: [125I] PDGF); assay type: cell-based; conditions: nih3t3; Not Active = under 50% inhibition at 10 µM
Cathepsin G = target: T4, Cathepsin G (Homo sapiens, UniProt P08311); assay type: tissue-based; conditions: neutrophil;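 also: inhibition of Cathepsin G enzyme activity, tested on an AMC-conjugated peptide substrate; in other assays of this panel Not Active means under 50% inhibition at 10 µM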
T4 sequence (P08311 whole entry): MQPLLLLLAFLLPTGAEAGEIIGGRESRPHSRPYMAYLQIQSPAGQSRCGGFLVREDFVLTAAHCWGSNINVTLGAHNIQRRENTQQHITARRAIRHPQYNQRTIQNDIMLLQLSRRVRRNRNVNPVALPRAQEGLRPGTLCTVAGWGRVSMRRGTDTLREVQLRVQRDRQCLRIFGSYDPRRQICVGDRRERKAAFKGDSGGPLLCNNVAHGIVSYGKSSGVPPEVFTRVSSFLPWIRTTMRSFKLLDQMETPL

[9] = target: Mitogen-activated protein kinase 1 (Homo sapiens, UniProt P28482); assay: DRUGMATRIX: Protein Serine/Threonine Kinase, ERK2 enzyme inhibition (substrate: Myelin Basic Protein); parameters: species or system Escherichia coli; conditions: Not Active = under 50% inhibition at 10 µM
Mitogen-activated protein kinase 1, sequence (P28482 whole entry): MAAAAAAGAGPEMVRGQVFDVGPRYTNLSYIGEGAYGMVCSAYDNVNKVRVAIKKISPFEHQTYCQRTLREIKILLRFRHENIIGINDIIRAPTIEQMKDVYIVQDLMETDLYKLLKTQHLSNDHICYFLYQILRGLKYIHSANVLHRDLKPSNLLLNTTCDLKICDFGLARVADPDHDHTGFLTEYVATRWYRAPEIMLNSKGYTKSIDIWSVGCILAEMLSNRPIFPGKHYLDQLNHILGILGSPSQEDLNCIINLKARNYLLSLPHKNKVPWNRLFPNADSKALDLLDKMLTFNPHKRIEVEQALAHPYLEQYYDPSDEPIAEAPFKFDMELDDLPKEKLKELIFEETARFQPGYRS

[10] = target: 5-hydroxytryptamine receptor 1B (Rattus norvegicus, UniProt P28564); assay type: cell membranes, Wistar, Cerebral cortex, Membrane; also: in other assays of this panel Not Active means under 50% inhibition at 10 µM
5-hydroxytryptamine receptor 1B, sequence (P28564 whole entry): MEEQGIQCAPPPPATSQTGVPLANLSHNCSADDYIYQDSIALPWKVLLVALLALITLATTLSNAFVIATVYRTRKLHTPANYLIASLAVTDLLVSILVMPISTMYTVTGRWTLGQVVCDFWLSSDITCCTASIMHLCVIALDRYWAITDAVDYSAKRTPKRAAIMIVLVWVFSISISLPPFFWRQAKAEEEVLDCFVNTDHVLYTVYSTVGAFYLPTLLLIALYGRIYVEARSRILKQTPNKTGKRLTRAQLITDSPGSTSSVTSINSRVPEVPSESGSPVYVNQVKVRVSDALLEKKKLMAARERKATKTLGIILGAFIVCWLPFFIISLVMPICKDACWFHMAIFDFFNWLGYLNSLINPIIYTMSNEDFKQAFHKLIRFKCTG

Cytochrome P450 2E1 = Cytochrome P450 2E1 (Homo sapiens, UniProt P05181); conditions: bti-tn-5b1-4; also: in other assays of this panel Not Active means under 50% inhibition at 10 µM
Cytochrome P450 2E1, sequence (P05181 whole entry): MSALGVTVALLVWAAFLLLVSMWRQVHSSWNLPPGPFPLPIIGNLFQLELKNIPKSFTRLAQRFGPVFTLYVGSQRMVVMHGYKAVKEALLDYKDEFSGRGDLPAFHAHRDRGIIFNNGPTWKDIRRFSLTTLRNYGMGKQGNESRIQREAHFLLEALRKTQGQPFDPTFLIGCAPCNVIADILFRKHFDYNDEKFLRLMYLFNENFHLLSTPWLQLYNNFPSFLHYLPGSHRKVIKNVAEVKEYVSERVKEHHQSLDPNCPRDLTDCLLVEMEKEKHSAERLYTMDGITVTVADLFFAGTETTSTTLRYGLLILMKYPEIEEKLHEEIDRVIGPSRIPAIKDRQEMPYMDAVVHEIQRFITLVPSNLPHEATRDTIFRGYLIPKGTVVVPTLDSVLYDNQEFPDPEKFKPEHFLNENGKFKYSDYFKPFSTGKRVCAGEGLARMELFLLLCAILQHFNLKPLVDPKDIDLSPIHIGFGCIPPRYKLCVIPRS

C=C1[C@@H]2CCC3[C@@](CC[C@@H]4[C@H](C(=O)O)C[C@@H](O[C@@H]5O[C@H](CO)[C@@H](OS(=O)(=O)[O-])[C@H](OS(=O)(=O)[O-])[C@H]5OC(=O)CC(C)C)C[C@@]34C)(C2)[C@@H]1O.[K+].[K+] (stereo not given in full) [ATRACTYLOSIDE]
Not Active: IC50 [1] | IC50 [2] | IC50 [3] | IC50 [4] | IC50 [5] | Ki [5] | IC50 [6] | IC50 [7] | Ki [7] | IC50 [8] | Ki [8] | IC50 (Cathepsin G) | IC50 [9] | IC50 [10] | IC50 (Cytochrome P450 2E1) | Ki (Cytochrome P450 2E1)

CCCC[C@@H](CC)COC(=O)c1ccccc1C(=O)OC[C@@H](CC)CCCC [BIS(2-ETHYLHEXYL)PHTHALATE]
Not Active: IC50 [1] | IC50 [2] | IC50 [3] | IC50 [4] | IC50 [5] | Ki [5] | IC50 [6] | IC50 [7] | Ki [7] | IC50 [8] | Ki [8] | IC50 (Cathepsin G) | IC50 [9] | IC50 [10] | IC50 (Cytochrome P450 2E1) | Ki (Cytochrome P450 2E1)

C=C(C)[C@@H]1[C@H]2OC(=O)[C@@H]1[C@]1(O)C[C@H]3O[C@]34C(=O)O[C@H]2[C@]14C [PICROTOXININ]
Not Active: IC50 [1] | IC50 [2] | IC50 [3] | IC50 [4] | IC50 [5] | Ki [5] | IC50 [6] | IC50 [7] | Ki [7] | IC50 [8] | Ki [8] | IC50 (Cathepsin G) | IC50 [9] | IC50 [10] | IC50 (Cytochrome P450 2E1) | Ki (Cytochrome P450 2E1)

CARBOPLATIN
Not Active: IC50 [1] | Ki [1] | IC50 [2] | Ki [2] | IC50 [3] | Ki [3] | IC50 [4] | Ki [4] | IC50 [5] | Ki [5] | IC50 [6] | Ki [6] | IC50 [7] | Ki [7] | IC50 [8] | Ki [8] | IC50 (Cathepsin G) | Ki (Cathepsin G) | IC50 [9] | Ki [9] | IC50 [10] | Ki [10] | IC50 (Cytochrome P450 2E1) | Ki (Cytochrome P450 2E1)

CISPLATIN
Not Active: IC50 [1] | Ki [1] | IC50 [2] | Ki [2] | IC50 [3] | Ki [3] | IC50 [4] | Ki [4] | IC50 [5] | Ki [5] | IC50 [6] | Ki [6] | IC50 [7] | Ki [7] | IC50 [8] | Ki [8] | IC50 (Cathepsin G) | Ki (Cathepsin G) | IC50 [9] | Ki [9] | IC50 [10] | Ki [10] | IC50 (Cytochrome P450 2E1) | Ki (Cytochrome P450 2E1)

GOLD SODIUM THIOMALATE
Not Active: IC50 [1] | Ki [1] | IC50 [2] | Ki [2] | IC50 [3] | Ki [3] | IC50 [4] | Ki [4] | IC50 [5] | Ki [5] | IC50 [6] | Ki [6] | IC50 [7] | Ki [7] | IC50 [8] | Ki [8] | IC50 (Cathepsin G) | Ki (Cathepsin G) | IC50 [9] | Ki [9] | IC50 [10] | Ki [10] | IC50 (Cytochrome P450 2E1) | Ki (Cytochrome P450 2E1)
